Results published in US9174979B2, “Phenanthroindolizidine compound and NFκB inhibitor containing same as active ingredient” (KABUSHIKI KAISHA YAKULT HONSHA, priority 2008, dated 2015).
Marks after values point to notes of the source that are not given here.

Legend:
NFκB = NFκB luciferase reporter assay in SW480/NRE-Luc cells stimulated with TNFα; format: cell-based, human; details: for IC50: Homo sapiens, SW480, read-out: NFκB inhibitory activity IC50
Description: (§1) The action of the phenanthroindolizidine alkaloid compound of the present invention on the NFκB activity was studied in a luciferase assay. Human colon cancer SW480 cells were transfected with pNFκB-Luc Plasmid (Stratagene), which is a reporter vector in which a five-time tandem repeat of the NFκB responsive element (NRE) is integrated into the upstream of the luciferase gene, using Lipofectamine 2000 (Invitrogen Corporation) in accordance with the attached operating procedure. Subsequently, the cells were cultured in an RPMI1640 medium containing 10% FBS, 100 U/mL penicillin, 100 μg/mL streptomycin, and 0.5 mg/mL G418 to produce SW480 cells having the luciferase gene, the expression of which is regulated by NRE, stably introduced therein (SW480/NRE-Luc cells). Likewise, SW480 cells were transfected with pGL3-Control Vector (Promega Corporation), which is a reporter vector in which the SV40 promoter is integrated into the upstream of the luciferase gene, to produce SW480 cells having the luciferase gene, the expression of which is regulated by the SV40 promoter, stably introduced therein (SW480/SV40-Luc cells). The SW480/NRE-Luc cells or the SW480/SV40-Luc cells were suspended in an RPMI1640 medium containing 10% FBS, 100 U/mL penicillin, and 100 μg/mL streptomycin (10% FBS/RPMI1640), and then seeded in a 96-well microplate, followed by culturing under conditions of 5% CO2 and at 37° C. (5000 cells/well). After an overnight culture, the compound of the present invention was added, followed by culturing for one hour. Further, 50 ng/mL TNFα (Sigma-Aldrich Corporation) was added, followed by culturing for four hours. Subsequently, a Steady-Glo Luciferase Assay reagent (Promega Corporation) was added, and the luminescent intensity was detected by SpectraMax M5e (Molecular Devices, Inc.) to measure the intracellular luciferase activity. It is to be noted that the action of the compound of the present invention on the NFκB activity or the SV40 promoter activity was shown as IC50 values (the concentration of a test compound needed for 50% inhibition of the induction of the luciferase expression).

SV40 promoter = SV40 promoter luciferase reporter assay in SW480/SV40-Luc cells; format: cell-based, human; details: for IC50: Homo sapiens, SW480, read-out: SV40 promoter inhibitory activity IC50
Description: as §1

[1] = system: human non-small cell lung cancer A549 cells; experiment: Inhibitory action on the proliferation of A549 cells; format: cell-based; details: 96 hours culture, TetraColor ONE; for IC50: Homo sapiens, A549
Method: (§2) The action of the phenanthroindolizidine alkaloid compound of the present invention on the proliferation of human colon cancer SW480 cells, HT-29 cells, and human non-small cell lung cancer A549 cells was studied. The SW480 cells were suspended in a 10% FBS/RPMI1640 and then seeded in a 96-well microplate, followed by culturing in 5% CO2 at 37° C. (2000 cells/well). The A549 cells and the HT-29 cells were each suspended in a DMEM medium containing 10% FBS, 100 U/mL penicillin, and 100 μg/mL streptomycin (10% FBS/DMEM) and a DMEM F-12 HAM medium containing 10% FBS, 100 U/mL penicillin, and 100 μg/mL streptomycin (10% FBS/DMEM F12 HAM), and then seeded in 96-well microplates, followed by culturing in 5% CO2 at 37° C. (1000 cells/well). After an overnight culture, the compound of the present invention was added, followed by further culturing for 48 hours (SW480 cells) and 96 hours (A549 cells and HT-29 cells). After culturing, the number of viable cells was counted using TetraColor ONE (Seikagaku Corporation) in accordance with the attached operating procedure. The results were expressed as the concentration of a test compound needed for 50% inhibition of the proliferation of the cells (IC50).

mice = experiment: Animal toxicity test in mice transplanted with Meth A cells; format: in vivo, mouse; details: intravenous on days 1, 5, 9, observed for three weeks
Method: Also, the toxicity of known phenanthroindolizidine alkaloid compounds in mice, namely (12aS,13S)-6,7-dimethoxy-9,10,11,12,12a,13-hexahydro-9a-aza-cyclopenta[b]triphenylene-3,13-diol (known compound 1; refer to WO01/023384) and (12aS,13S)-3,6,7-trimethoxy-9,10,11,12,12a,13-hexahydro-9a-aza-cyclopenta[b]triphenylene-13-ol (known compound 2; refer to Planta Med., 2002, 68: 186-188), was simultaneously studied. To a control group, a physiological saline solution as a solvent, was administered.

[2] = system: human colon cancer SW480 cells; experiment: Inhibitory action on the proliferation of SW480 cells; format: cell-based; details: 48 hours culture, TetraColor ONE; for IC50: Homo sapiens, SW480
Method: as §2

[3] = system: human colon cancer HT-29 cells; experiment: Inhibitory action on the proliferation of HT-29 cells; format: cell-based; details: 96 hours culture, TetraColor ONE; for IC50: Homo sapiens, HT-29
Method: as §2

[4] = Measurement of solubility; details: saline or isotonic
Description: In in vivo studies, the phenanthroindolizidine alkaloid compounds were used in the form of a salt.

[5] = system: mice with TPA-induced ear edema; experiment: Anti-inflammatory effect in mice with TPA-induced ear edema; format: in vivo, mouse; details: intraperitoneal, 30 minutes before TPA 5 μg/ear; ICR mice; four hours after TPA
Method: The anti-inflammatory effect of the phenanthroindolizidine alkaloid compound of the present invention in vivo was studied using mice with phorbol 12-myristate 13-acetate (TPA)-induced ear edema. Compound 11, a compound of the present invention, was intraperitoneally administered to male 6-week-old ICR mice, and after 30 minutes, TPA (Sigma-Aldrich Corporation) dissolved in acetone was applied to the front and back of the right ear of the mice (5 μg/ear). Four hours after application of TPA, the thickness of the auricle was measured by a dial thickness gauge (Ozaki Mfg Co. Ltd.). A control group was administered with a 5% glucose solution as a solvent.

[6] = system: mouse fibrosarcoma Meth A cells; experiment: Antitumor effect in mice transplanted with mouse fibrosarcoma Meth A cells; format: in vivo; details: intravenous on days 1, 5, 9, BALB/c mice, tumor weight on day 21
Method: The antitumor effect of the phenanthroindolizidine alkaloid compound of the present invention in vivo was studied using mice transplanted with mouse fibrosarcoma Meth A cells. Meth A cells were transplanted subcutaneously in the inguinal region of male 7-week-old BALB/c mice (2.5×10^5 cells/mouse). Subsequently, on days 1, 5, and 9, the compound of the present invention was intravenously administered. To a control group, physiological saline as a solvent, was administered. On day 21 after the cell transplantation, tumor was excised and measured for its weight, and subsequently a tumor growth-inhibition rate IR (%) was obtained by the following formula. Tumor growth-inhibition rate IR(%)=(1−the weight of the tumor in an administration group/the weight of the tumor in a control group)×100

[7] = system: human colon cancer HCT116 cells; experiment: Antitumor effect in mice transplanted with human colon cancer HCT116 cells; format: in vivo; details: intraperitoneal on days 1 to 5 and 8 to 12, BALB/c nude mice, tumor weight on day 21
Description: The antitumor effect of the phenanthroindolizidine alkaloid compound of the present invention in vivo was studied using mice transplanted with human colon cancer HCT116 cells. HCT116 cells were transplanted subcutaneously in the inguinal region of male 6-week-old BALB/c nude mice (2×10^6 cells/mouse). On days 1 to 5 and on days 8 to 12 after the time at which the estimated tumor volume obtained by 1/2ab^2 (a and b indicate the major axis and the minor axis of tumor, respectively) reached approximately 100 mm^3 (day 0), the compound of the present invention was administered (intraperitoneal administration). To a control group, a 5% glucose solution as a solvent, was administered. On day 21, tumor was excised and measured for its weight, and subsequently a tumor proliferation-inhibition rate IR (%) was calculated.

Compound: COc1cc2c3c(c4ccc(O)cc4c2cc1OC)C(O)C1(C)CCCN1C3.Cl (stereo not drawn) [Compound 6, 6,7-dimethoxy-12a-methyl-9,10,11,12,12a,13-hexahydro-9a-aza-cyclopenta[b]triphenylene-3,13-diol hydrochloride]
- IC50 (NFκB): 1920 ng/mL
- IC50 (SV40 promoter): > 10000 ng/mL
- IC50 [1]: 757 ng/mL
- Mortality rate (mice; total dose 25 mg/kg): 0/5
- Mortality rate (mice; total dose 50 mg/kg): 0/5
- IC50 [2]: 3120 ng/mL
- IC50 [3]: 839 ng/mL

Compound: Cl.Oc1ccc2c3c(c4cc5c(cc4c2c1)OCO5)CN1CCC[C@H]1[C@H]3O [Compound 8, (12aS,13S)-6,7-methylenedioxy-9,10,11,12,12a,13-hexahydro-9a-aza-cyclopenta[b]triphenylene-3,13-diol hydrochloride]
- IC50 (NFκB): 8.4 ng/mL
- IC50 (SV40 promoter): > 10000 ng/mL
- IC50 [1]: 19.3 ng/mL
- Mortality rate (mice; total dose 25 mg/kg): 0/5
- Mortality rate (mice; total dose 50 mg/kg): 0/5
- IC50 [2]: 26.7 ng/mL
- IC50 [3]: 46.9 ng/mL

Compound: CC1(C)Oc2cc3c4c(c5ccc(O)cc5c3cc2O1)[C@H](O)[C@@H]1CCCN1C4.Cl [Compound 9, (12aS,13S)-6,7-isopropylidenedioxy-9,10,11,12,12a,13-hexahydro-9a-aza-cyclopenta[b]triphenylene-3,13-diol hydrochloride]
- NFκB inhibitory activity IC50 (NFκB; SW480/NRE-Luc cells, 50 ng/mL TNFα, luciferase expression): 521.6 ng/mL
- SV40 promoter inhibitory activity IC50 (SV40 promoter; SW480/SV40-Luc cells, luciferase expression): >10000 ng/mL
- A549 proliferation inhibitory action IC50 [1]: 350.2 ng/mL
- Mortality rate (mice; total dose 25 mg/kg): 0/5
- Mortality rate (mice; total dose 50 mg/kg): 0/5
- SW480 proliferation inhibitory action IC50 [2]: 1955.0 ng/mL
- HT-29 proliferation inhibitory action IC50 [3]: 184.0 ng/mL

Compound: CCOc1cc2c3c(c4ccc(O)cc4c2cc1OCC)[C@H](O)[C@@H]1CCCN1C3.Cl [Compound 10, (12aS,13S)-6,7-diethoxy-9,10,11,12,12a,13-hexahydro-9a-aza-cyclopenta[b]triphenylene-3,13-diol hydrochloride]
- IC50 (NFκB): 4.1 ng/mL
- IC50 (SV40 promoter): > 100 ng/mL
- IC50 [1]: 0.27 ng/mL
- Mortality rate (mice; total dose 25 mg/kg): 0/5
- Mortality rate (mice; total dose 50 mg/kg): 0/5
- IC50 [2]: 6.7 ng/mL
- IC50 [3]: 0.47 ng/mL

Compound: COc1cc2c3c(c4ccc(O)cc4c2cc1OC)C[C@@H]1CCCN1C3.Cl [Compound 11, (S)-6,7-dimethoxy-9,10,11,12,12a,13-hexahydro-9a-aza-cyclopenta[b]triphenylene-3-ol hydrochloride]
- IC50 (NFκB): 1.2 ng/mL
- IC50 (SV40 promoter): > 10 ng/mL
- IC50 [1]: 0.024 ng/mL
- solubility [4]: 4000 µg/mL
- Mortality rate (mice; total dose 25 mg/kg): 0/5
- Mortality rate (mice; total dose 50 mg/kg): 0/5
- Anti-inflammatory effect (thickness of the auricle) [5]: inhibiting TPA-induced ear edema in a dose-dependent manner
- Tumor growth inhibition rate IR ([6]; total dose 25 mg/kg): 52.1** %
- Tumor growth inhibition rate IR ([6]; total dose 50 mg/kg): 64.6** %
- IC50 [2]: 3.8 ng/mL
- IC50 [3]: 0.62 ng/mL

Compound: COc1cc2c3c(c4ccc(O)cc4c2cc1OC)C[C@H]1CCCN1C3.Cl [Compound 12, (R)-6,7-dimethoxy-9,10,11,12,12a,13-hexahydro-9a-aza-cyclopenta[b]triphenylene-3-ol hydrochloride]
- IC50 (NFκB): 18.1 ng/mL
- IC50 (SV40 promoter): > 10000 ng/mL
- IC50 [1]: 12.7 ng/mL
- Mortality rate (mice; total dose 25 mg/kg): 0/5
- Mortality rate (mice; total dose 50 mg/kg): 0/5
- Tumor growth inhibition rate IR ([6]; total dose 25 mg/kg): 25.3%
- Tumor growth inhibition rate IR ([6]; total dose 50 mg/kg): 58.8** %
- IC50 [2]: 50.4 ng/mL
- IC50 [3]: 50.4 ng/mL

Compound: Cl.Oc1ccc2c3c(c4cc5c(cc4c2c1)OCO5)CN1CCC[C@H]1C3 [Compound 13, (S)-6,7-methylenedioxy-9,10,11,12,12a,13-hexahydro-9a-aza-cyclopenta[b]triphenylene-3-ol hydrochloride]
- IC50 (NFκB): 48.4 ng/mL
- IC50 (SV40 promoter): > 10000 ng/mL
- IC50 [1]: 48.2 ng/mL
- Mortality rate (mice; total dose 25 mg/kg): 0/5
- Mortality rate (mice; total dose 50 mg/kg): 0/5
- Tumor growth inhibition rate IR ([6]; total dose 25 mg/kg): 45.6* %
- Tumor growth inhibition rate IR ([6]; total dose 50 mg/kg): 31.5%
- IC50 [2]: 38.7 ng/mL
- IC50 [3]: 260 ng/mL

Compound: COc1cc2c3c(c4ccc(O)cc4c2cc1OC)CN1CCC[C@H]1[C@H]3O.Cl [Compound 15, (12aS,13S)-2,3-dimethoxy-9,10,11,12,12a,13-hexahydro-9a-aza-cyclopenta[b]triphenylene-6,13-diol hydrochloride]
- IC50 (NFκB): 2 ng/mL
- IC50 (SV40 promoter): > 10000 ng/mL
- IC50 [1]: 34 ng/mL
- Mortality rate (mice; total dose 25 mg/kg): 0/5
- Mortality rate (mice; total dose 50 mg/kg): 0/5
- IC50 [2]: 4.2 ng/mL
- IC50 [3]: 56.6 ng/mL

Compound: (S)-6,7-dimethoxy-9,10,11,12,12a,13-hexahydro-9a-aza-cyclopenta[b]triphenylene-3-ol methanesulfonate [Compound 16]
- Tumor growth inhibition rate IR ([7]; total dose 100 mg/kg): 35.7*** %
- Tumor growth inhibition rate IR ([7]; total dose 200 mg/kg): 48.7*** %
